From EP1628135A1, “Method for detecting medically relevant conditions in a solubilized LBC sample” (MTM Laboratories AG, priority 2004, dated 2006) come the findings set out here.

Structures are written as SMILES. Like-named read-outs stand apart in the source and are kept apart here. Where a SMILES comes first, the peptide text is derived from it. [ ]: non-standard residue; d: D form. The star is where a group is joined. Sta = CC(C)C[C@H](N)[C@@H](O)CC(=O)O; Isovaleryl = CC(C)CC(=O)*

Data set [1] can be described thus: Solubility of proteinase inhibitors in water.
For another data set, the system named is p16^INK4a. As to the kind of experiment: Stabilization of p16INK4a by proteinase inhibitors in mtm lysis medium.
The nature of data set [2]: Stability of proteinase inhibitors in water.
The mark [3] stands for this setting: inhibitor at the concentration listed in Table 2.

On to `N=C(N)c1ccccc1` [Benzamidine], for which, in data set [1], the Solubility in water result is “good”. In the data set on p16^INK4a (setting [3]), the “p16^INK4a stabilization in mtm Lysis medium” value (from here on “p16^INK4a stabilization”) is “no”. Besides, the stability in water entry in data set [2] was “good”.
`CC(C)C[C@H](NC(=O)[C@@H](O)[C@H](N)Cc1ccccc1)C(=O)O` [Bestatin]: in data set [1], the Solubility in water entry was “good”. Moreover, the “p16^INK4a stabilization” value in the data set on p16^INK4a (setting [3]) is listed as “no”. Also, in data set [2], the stability in water entry is listed as “good”.
As for `CCCC[C@@H](C=O)NC(=O)[C@H](CC(C)C)NC(=O)OCc1ccccc1` [Calpeptin], the Solubility in water result in data set [1] is “good”. In addition, in the data set on p16^INK4a (setting [3]), the “p16^INK4a stabilization” value is on record as “no”. Moreover, in data set [2], the stability in water entry was “good”.
Consider `CC(C)C[C@H](NC(=O)[C@H]1O[C@@H]1C(=O)O)C(=O)NCCCCN=C(N)N` [E-64], for which the Solubility in water entry in data set [1] was “good”. In addition, the “p16^INK4a stabilization” value in the data set on p16^INK4a (setting [3]) was “no”. Besides, the stability in water result in data set [2] was “good”.
For `O=C(O)CN(CCN(CC(=O)O)CC(=O)O)CC(=O)O` [EDTA], in the data set with p16^INK4a, the “p16^INK4a stabilization” value is given as “no”.
With `CCOC(=O)[C@H]1O[C@@H]1C(=O)N[C@@H](CC(C)C)C(=O)NCCC(C)C` [EST], the Solubility in water entry in data set [1] is “bad”. Besides, the “p16^INK4a stabilization” value in the data set with p16^INK4a (setting [3]) is recorded as “no”. In addition, the stability in water result in data set [2] is “poor”.
Regarding `CC(C)C[C@H](NC(=O)N[C@H](C(=O)N[C@@H](CCC(N)=O)C(=O)N[C@@H](C)C=O)[C@@H]1CCNC(=N)N1)C(=O)O` [Elastatinal], the Solubility in water entry in data set [1] was “poor”. The “p16^INK4a stabilization” value with p16^INK4a (setting [3]) is “no”. Besides, the stability in water result in data set [2] is reported as “good”.
`CC(=O)N[C@@H](CC(C)C)C(=O)N[C@@H](CC(C)C)C(=O)N[C@H](C=O)CCCNC(=N)N` [Leupeptin]: the Solubility in water entry in data set [1] was “good”. Besides, the “p16^INK4a stabilization” value in the data set with p16^INK4a (setting [3]) is recorded as “no”. Further, the stability in water result in data set [2] is reported as “good”.
Take `CCOC(=O)[C@@H]1O[C@H]1C(=O)NC(CC(C)C)C(=O)N1CCN(Cc2ccc(OC)c(OC)c2OC)CC1.CCOC(=O)[C@@H]1O[C@H]1C(=O)NC(CC(C)C)C(=O)N1CCN(Cc2ccc(OC)c(OC)c2OC)CC1.O=S(=O)(O)O` (stereo partly shown) [NCO-700]: in data set [1], the Solubility in water entry is listed as “poor”. Also, the “p16^INK4a stabilization” value in the data set with p16^INK4a (setting [3]) is recorded as “no”. Besides, the stability in water entry in data set [2] was “poor”.
In the case of `O=S(=O)(F)Cc1ccccc1` [PMSF], in the data set on p16^INK4a (setting [3]), the “p16^INK4a stabilization” value is on record as “yes”.
Same read-out and setting: the value for `NCCc1ccc(S(=O)(=O)F)cc1` [Pefabloc= AEBSF, AEBSF] was “yes”; that for `CC(C)CC(=O)N[C@H](C(=O)N[C@H](C(=O)N[C@@H](CC(C)C)[C@@H](O)CC(=O)N[C@@H](C)C(=O)N[C@@H](CC(C)C)[C@@H](O)CC(=O)O)C(C)C)C(C)C` [Pepstatin A] (Isovaleryl-VV[Sta]A[Sta]-OH) was “no”.
Regarding `c1cnc2c(c1)ccc1cccnc12` [o-Phenanthroline], in data set [1], the Solubility in water result is listed as “bad”. Moreover, in the data set on p16^INK4a (setting [3]), the “p16^INK4a stabilization” value is reported as “no”. In addition, in data set [2], the stability in water result is on record as “poor”.
